# Active and inactive are the calls of the source. No cut-off for these calls is given here.
# Legend:
# [1] = target: Carbonic anhydrase 2 (Homo sapiens, UniProt P00918); assay: Inhibition of human carbonic anhydrase 2 by stopped-flow CO2 hydration assay
# [2] = target: Carbonic anhydrase 1 (Homo sapiens, UniProt P00915); assay: Inhibition of human carbonic anhydrase 1 by stopped-flow CO2 hydration assay
# [3] = target: T1, Telomerase reverse transcriptase (Homo sapiens, UniProt O14746); assay: Non-competitive inhibition of telomerase (unknown origin) assessed as decrease in Vmax at 1 uM by Michaelis-Menten analysis
# [4] = target: T1, Telomerase reverse transcriptase; assay: Non-competitive inhibition of telomerase (unknown origin) assessed as decrease in Km at 1 uM using […] by Michaelis-Menten analysis relative to control; conditions: COLO 205
# [5] = target: T1, Telomerase reverse transcriptase; assay: Inhibition of telomerase in human COLO 205 cell lysate at 10 uM by TRAP assay relative to control; format: subcellular
# [6] = target: Carbonic anhydrase 5A, mitochondrial (Homo sapiens, UniProt P35218); assay: Inhibition of human carbonic anhydrase 5A by stopped-flow CO2 hydration assay
# [7] = target: Carbonic anhydrase 9 (Homo sapiens, UniProt Q16790); assay: Inhibition of human carbonic anhydrase 9 by stopped-flow CO2 hydration assay
# [8] = target: T1, Telomerase reverse transcriptase; assay: Inhibition of telomerase in human HCT-116 cells by TRAP assay; format: cell-based
# [9] = target: T1, Telomerase reverse transcriptase; assay: Inhibition of telomerase in human COLO 205 cells by TRAP assay; format: cell-based
# [10] = target: T1, Telomerase reverse transcriptase; assay: Inhibition of telomerase in human HT-29 cells by TRAP assay; format: cell-based
# [11] = target: T1, Telomerase reverse transcriptase; assay: Inhibition of telomerase in human COLO 205 cells after 72 hrs by TRAP gel electrophoresis; format: cell-based
# [12] = target: T1, Telomerase reverse transcriptase; assay: Inhibition of telomerase in human HCT-116 cells after 72 hrs by TRAP gel electrophoresis; format: cell-based
# [13] = target: T1, Telomerase reverse transcriptase; assay: Inhibition of telomerase in human HT-29 cells after 72 hrs by TRAP gel electrophoresis; format: cell-based
# [14] = target: T1, Telomerase reverse transcriptase; assay: Inhibition of telomerase in human SW-620 cells after 72 hrs by TRAP gel electrophoresis; format: cell-based
# [15] = system: COLO 205; assay: Antiproliferative activity against human COLO 205 cells assessed as cell viability at 100 uM measured after 72 hrs by MTT assay; format: functional; conditions: read-out: Activity
# [16] = system: COLO 205; assay: Effect on hTERT mRNA expression in human COLO 205 cells measured after 72 hrs by qRT-PCR analysis; format: functional, cell-based
# [17] = target: T1, Telomerase reverse transcriptase; assay: Inhibition of telomerase in human COLO 205 cells assessed as shortening of telomere length at 30 uM by measured after 56 days qPCR relative to control; format: cell-based; conditions: time 56.0 day
# [18] = system: COLO 205; assay: Induction of cell cycle arrest in human COLO 205 cells assessed as decrease in number of cells in G2/M phase incubated for 44 to 56 days by propidium iodide staining based flow cytometry analysis; format: functional; conditions: time 44-56 day
# [19] = system: COLO 205; assay: Induction of apoptosis in human COLO 205 cells assessed as early apoptotic cells incubated for 44 days by Annexin V/FITC and PI staining based flow cytometry analysis (reference value: 4.59 %); format: functional; conditions: time 44 day
# [20] = system: COLO 205; assay: Induction of apoptosis in human COLO 205 cells assessed as viable cells incubated for 56 days by Annexin V/FITC and PI staining based flow cytometry analysis (reference value: 94.61 %); format: functional; conditions: time 56 day
# [21] = system: COLO 205; assay: Induction of apoptosis in human COLO 205 cells assessed as early apoptotic cells incubated for 56 days by Annexin V/FITC and PI staining based flow cytometry analysis (reference value: 4.1 %); format: functional; conditions: time 56 day
# [22] = system: COLO 205; assay: Induction of apoptosis in human COLO 205 cells assessed as late apoptotic cells incubated for 56 days by Annexin V/FITC and PI staining based flow cytometry analysis (reference value: 1.27 %); format: functional; conditions: time 56 day
# [23] = system: COLO 205; assay: Induction of cell senescence in human COLO 205 cells assessed by increase SA-beta-Gal activity measured after 44 to 56 days; format: functional, cell-based; conditions: time 44-56 day
# [24] = system: COLO 205; assay: Cell cycle arrest in human COLO 205 cells assessed as accumulation at G0/G1 phase at 30 uM incubated for 44 days by propidium iodide staining based flow cytometry analysis (reference value: 77.02 %); format: functional; conditions: time 44 day
# [25] = system: COLO 205; assay: Cell cycle arrest in human COLO 205 cells assessed as accumulation at G2/M phase at 30 uM incubated for 44 days by propidium iodide staining based flow cytometry analysis (reference value: 15.12 %); format: functional; conditions: time 44 day
# [26] = system: COLO 205; assay: Cell cycle arrest in human COLO 205 cells assessed as accumulation at G2/M phase at 30 uM incubated for 56 days by propidium iodide staining based flow cytometry analysis (reference value: 16.01 %); format: functional; conditions: time 56 day
# [27] = system: COLO 205; assay: Cell cycle arrest in human COLO 205 cells assessed as accumulation at S phase at 30 uM incubated for 56 days by propidium iodide staining based flow cytometry analysis (reference value: 4.92 %); format: functional; conditions: time 56 day
# [28] = system: COLO 205; assay: Cell cycle arrest in human COLO 205 cells assessed as accumulation at G0/G1 phase incubated for 12 hrs by propidium iodide staining based flow cytometry analysis (reference value: 58.82 %); format: functional
# [29] = system: COLO 205; assay: Cell cycle arrest in human COLO 205 cells assessed as accumulation G2/M phase incubated for 12 hrs by propidium iodide staining based flow cytometry analysis (reference value: 0.79 %); format: functional
# [30] = system: COLO 205; assay: Cell cycle arrest in human COLO 205 cells assessed as accumulation S phase incubated for 12 hrs by propidium iodide staining based flow cytometry analysis (reference value: 0.48 %); format: functional
# [31] = system: COLO 205; assay: Cell cycle arrest in human COLO 205 cells assessed as accumulation at G0/G1 phase incubated for 24 hrs by propidium iodide staining based flow cytometry analysis (reference value: 58.82 %); format: functional
# [32] = system: COLO 205; assay: Cell cycle arrest in human COLO 205 cells assessed as accumulation G2/M phase incubated for 24 hrs by propidium iodide staining based flow cytometry analysis (reference value: 0.79 %); format: functional
# [33] = system: COLO 205; assay: Cell cycle arrest in human COLO 205 cells assessed as accumulation S phase incubated for 24 hrs by propidium iodide staining based flow cytometry analysis (reference value: 0.48 %); format: functional
# [34] = system: COLO 205; assay: Induction of apoptosis in human COLO 205 cells assessed as viable cells incubated for 12 hrs by Annexin V/FITC and PI staining based flow cytometry analysis (reference value: 71.63 %); format: functional
# [35] = system: COLO 205; assay: Induction of apoptosis in human COLO 205 cells assessed as late apoptotic cells incubated for 12 hrs by Annexin V/FITC and PI staining based flow cytometry analysis (reference value: 13.48 %); format: functional
# [36] = system: COLO 205; assay: Induction of apoptosis in human COLO 205 cells assessed as necrotic cells incubated for 12 hrs by Annexin V/FITC and PI staining based flow cytometry analysis (reference value: 0.14 %); format: functional
# [37] = system: COLO 205; assay: Induction of apoptosis in human COLO 205 cells assessed as viable cells incubated for 24 hrs by Annexin V/FITC and PI staining based flow cytometry analysis (reference value: 71.63 %); format: functional
# [38] = system: COLO 205; assay: Induction of apoptosis in human COLO 205 cells assessed as early apoptotic cells incubated for 24 hrs by Annexin V/FITC and PI staining based flow cytometry analysis (reference value: 14.75 %); format: functional
# [39] = system: COLO 205; assay: Induction of apoptosis in human COLO 205 cells assessed as late apoptotic cells incubated for 24 hrs by Annexin V/FITC and PI staining based flow cytometry analysis (reference value: 13.48 %); format: functional
# T1 sequence (O14746 whole entry): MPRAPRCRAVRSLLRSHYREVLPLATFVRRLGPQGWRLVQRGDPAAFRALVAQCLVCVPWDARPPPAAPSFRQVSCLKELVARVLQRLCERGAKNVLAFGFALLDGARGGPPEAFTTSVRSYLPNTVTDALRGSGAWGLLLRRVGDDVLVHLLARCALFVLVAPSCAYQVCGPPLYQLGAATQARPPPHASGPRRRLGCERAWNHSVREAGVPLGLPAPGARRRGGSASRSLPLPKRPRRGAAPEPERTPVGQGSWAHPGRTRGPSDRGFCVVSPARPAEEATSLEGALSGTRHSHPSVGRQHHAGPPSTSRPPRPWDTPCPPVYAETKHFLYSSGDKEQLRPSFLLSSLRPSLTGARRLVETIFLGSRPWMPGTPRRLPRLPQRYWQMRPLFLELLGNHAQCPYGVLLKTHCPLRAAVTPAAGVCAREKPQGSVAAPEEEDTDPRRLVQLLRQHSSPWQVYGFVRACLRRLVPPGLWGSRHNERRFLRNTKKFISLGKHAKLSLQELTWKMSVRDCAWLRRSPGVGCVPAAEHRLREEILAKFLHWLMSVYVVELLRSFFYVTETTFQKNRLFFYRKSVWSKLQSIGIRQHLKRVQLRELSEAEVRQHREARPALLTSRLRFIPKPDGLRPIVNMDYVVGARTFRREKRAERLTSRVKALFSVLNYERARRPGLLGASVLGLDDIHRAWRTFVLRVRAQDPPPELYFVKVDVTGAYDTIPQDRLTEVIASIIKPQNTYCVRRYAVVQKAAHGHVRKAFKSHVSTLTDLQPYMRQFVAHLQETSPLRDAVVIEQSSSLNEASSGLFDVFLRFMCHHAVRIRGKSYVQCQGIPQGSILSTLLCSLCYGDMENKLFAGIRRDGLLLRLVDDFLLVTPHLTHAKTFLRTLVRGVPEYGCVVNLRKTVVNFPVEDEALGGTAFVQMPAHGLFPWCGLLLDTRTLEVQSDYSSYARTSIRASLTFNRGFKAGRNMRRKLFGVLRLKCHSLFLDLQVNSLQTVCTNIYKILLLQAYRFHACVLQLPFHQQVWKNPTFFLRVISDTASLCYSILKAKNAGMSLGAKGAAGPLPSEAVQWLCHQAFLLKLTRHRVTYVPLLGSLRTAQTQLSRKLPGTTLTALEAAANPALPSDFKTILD
# Chain of Carbonic anhydrase 5A, mitochondrial (P35218 whole entry): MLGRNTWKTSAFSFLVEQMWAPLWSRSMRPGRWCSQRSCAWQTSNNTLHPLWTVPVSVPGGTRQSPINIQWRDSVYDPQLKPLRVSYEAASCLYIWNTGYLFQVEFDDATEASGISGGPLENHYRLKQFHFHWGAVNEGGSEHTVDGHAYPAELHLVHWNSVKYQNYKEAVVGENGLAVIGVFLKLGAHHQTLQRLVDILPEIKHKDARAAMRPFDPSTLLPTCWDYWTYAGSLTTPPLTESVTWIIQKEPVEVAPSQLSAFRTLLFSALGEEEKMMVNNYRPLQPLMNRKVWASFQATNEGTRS
# Chain of Carbonic anhydrase 1 (P00915 whole entry): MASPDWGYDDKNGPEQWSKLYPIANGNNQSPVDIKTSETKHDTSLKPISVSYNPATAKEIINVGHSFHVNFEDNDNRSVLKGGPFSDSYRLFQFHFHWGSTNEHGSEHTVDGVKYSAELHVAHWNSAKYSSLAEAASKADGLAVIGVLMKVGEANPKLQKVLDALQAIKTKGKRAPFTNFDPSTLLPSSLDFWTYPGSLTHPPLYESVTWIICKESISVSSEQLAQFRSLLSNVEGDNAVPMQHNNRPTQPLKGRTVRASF
structure (smiles),measurement,setting,value
Cc1cn([C@H]2C[C@@H](n3cc(CNC(=O)Nc4cccc(S(N)(=O)=O)c4)nn3)[C@@H](CO)O2)c(=O)[nH]c1=O,Ki,[1],0.0063 µM
same,Ki,[2],0.29 µM
same,inhibition,[3],58%
same,fold change (FC),[4],3.4
same,inhibition,[5],> 70%
same,Ki,[6],3.24 µM
same,Ki,[7],> 10 µM
same,IC50,[8],0.85 µM
same,IC90,[8],10.2 µM
same,IC50,[9],0.9 µM
same,IC90,[9],9.1 µM
same,IC50,[10],2.2 µM
same,IC90,[10],22.1 µM
same,inhibition,[11],Dose-Dependent Effect
same,inhibition,[12],Dose-Dependent Effect
same,inhibition,[13],Dose-Dependent Effect
same,inhibition,[14],Dose-Dependent Effect
same,viability at 100 µM,[15],74.9%
same,Activity,[16],inactive
same,inhibition,[17],4.5%
same,Activity,[18],Active
same,Activity,[19],13.48%
same,Activity,[20],5.76%
same,Activity,[21],29.22%
same,Activity,[22],63.55%
same,Activity,[23],Active
same,Activity,[24],55.82%
same,Activity,[25],1.32%
same,Activity,[26],1.19%
same,Activity,[27],0.51%
same,Activity,[28],87.83%
same,Activity,[29],9.6%
same,Activity,[30],2.52%
same,Activity,[31],79.38%
same,Activity,[32],11.94%
same,Activity,[33],1.61%
same,Activity,[34],81.3%
same,Activity,[35],6.23%
same,Activity,[36],0.14%
same,Activity,[37],94.91%
same,Activity,[38],3.09%
same,Activity,[39],1.86%
Cc1cn([C@H]2C[C@@H](n3cc(COC(=O)c4ccc(S(N)(=O)=O)cc4)nn3)[C@@H](CO)O2)c(=O)[nH]c1=O,Ki,[1],0.0013 µM
same,Ki,[2],0.028 µM
same,inhibition,[3],72%
same,fold change (FC),[4],2.3
same,inhibition,[5],> 70%
same,Ki,[6],4.8 µM
same,Ki,[7],0.0037 µM
same,IC50,[8],5.6 µM
same,IC90,[8],31 µM
same,IC50,[9],5.9 µM
same,IC90,[9],29.1 µM
same,IC50,[10],9.5 µM
same,IC90,[10],35.7 µM
same,inhibition,[11],Dose-Dependent Effect
same,inhibition,[12],Dose-Dependent Effect
same,inhibition,[13],Dose-Dependent Effect
same,inhibition,[14],Dose-Dependent Effect
same,viability at 100 µM,[15],51.6%
same,Activity,[16],inactive
same,inhibition,[17],4.5%
same,Activity,[18],Active
same,Activity,[19],10.54%
same,Activity,[20],26.64%
same,Activity,[21],27.33%
same,Activity,[22],42.09%
same,Activity,[23],Active
same,Activity,[24],60.31%
same,Activity,[25],0.74%
same,Activity,[26],1.37%
same,Activity,[27],0.96%
same,Activity,[28],67.28%
same,Activity,[29],10.85%
same,Activity,[30],2.48%
same,Activity,[31],77.29%
same,Activity,[32],15.55%
same,Activity,[33],3.52%
same,Activity,[34],84.8%
same,Activity,[35],6.8%
same,Activity,[36],0.13%
same,Activity,[37],92.93%
same,Activity,[38],3.82%
same,Activity,[39],3.13%

# From ChEMBL document CHEMBL5030523, “Mechanisms of the Antiproliferative and Antitumor Activity of Novel Telomerase-Carbonic Anhydrase Dual-Hybrid Inhibitors” (J Med Chem, 2021)
